Tests used:
Enterobacter aerogenes = assay: Log10 reduction of viable facultative anaerobic bacteria in high-TDS buffer after biocide contact; assay type: cell-based; conditions: TDS 30,000 mg l^-1, pH 8 phosphate buffer, room temperature, versus control, ppm active per example, 8 = complete kill
Experimental: (§1) Aqueous systems inoculated with anaerobe and facultative anaerobe culture and having a total dissolved solids (TDS) concentration of 30,000 mg l^−1 were prepared and treated with treatment agents comprising: (a) a phosphonium compound and (b) a quaternary ammonium salt. The phosphonium compound (a) used was tri n-butyl n-tetradecyl phosphonium chloride (TTPC). The quaternary ammonium salt (b) used was 1-(3-chloroallyl)-3,5,7-triaza-1-azoniaadamantane chloride (CTAC).
(§2) A suspension of Desulfovibrio vulgaris plus Enterobacter aerogenes bacteria containing from 1×10^5 to 1×10^6 cells/mL was prepared in sterile pH 8 phosphate buffer containing sodium chloride to give the desired total dissolved solids (TDS) concentration. Aliquots of this suspension were dosed with the indicated concentrations of the compounds (a) and (b) with the concentrations being measured as ppm active by weight. The mixtures were allowed to stand at room temperature. At the designated contact times, each mixture was sampled to determine the total number of viable cells of both Desulfovibrio vulgaris and Enterobacter aerogenes by serial 10-fold dilution into API RP 38 media vials and anaerobic acid producing media vials, respectively. The vials were incubated at 37° C. for 72 hours. Results were recorded as log10 reduction in the viable count versus the control.
(§3) The efficacy of the treatment agents was evaluated by measuring the Log10 Reduction of the anaerobic bacterium Desulfovibrio vulgaris and the facultative anaerobic bacterium Enterobacter aerogenes after contact times of 1 hour, 4 hours, 24 hours and 48 hours as detailed in Table 1. For TTPC the stated ppm value relates to the amount of TTPC added (active). For the CTAC the stated ppm relates to the amount of CTAC added (active).

Desulfovibrio vulgaris = assay: Log10 reduction of viable anaerobic bacteria in high-TDS buffer after biocide contact; assay type: cell-based; conditions: TDS 30,000 mg l^-1, pH 8 phosphate buffer, room temperature, versus control, ppm active per example, 5 = complete kill
Experimental: as §1, §2, §3

CCCCCCCCCCCCCC[P+](CCCC)(CCCC)CCCC.[Cl-] [Example 1, tri n-butyl n-tetradecyl phosphonium chloride]
Log10 Reduction Facultative Anaerobes (Enterobacter aerogenes; contact time 1 hour): 1 | Log10 Reduction Anaerobes (Desulfovibrio vulgaris; contact time 1 hour): 2

CCCCCCCCCCCCCC[P+](CCCC)(CCCC)CCCC.[Cl-] [Example 2, tri n-butyl n-tetradecyl phosphonium chloride]
Log10 Reduction Facultative Anaerobes (Enterobacter aerogenes; contact time 1 hour): 3 | Log10 Reduction Anaerobes (Desulfovibrio vulgaris; contact time 1 hour): 3

ClC=CC[N+]12CN3CN(CN(C3)C1)C2.[Cl-] [Example 4, 1-(3-chloroallyl)-3,5,7-triaza-1-azoniaadamantane chloride]
Log10 Reduction Facultative Anaerobes (Enterobacter aerogenes; contact time 1 hour): 0 | Log10 Reduction Anaerobes (Desulfovibrio vulgaris; contact time 1 hour): 0

CCCCCCCCCCCCCC[P+](CCCC)(CCCC)CCCC.[Cl-] [Example 9, tri n-butyl n-tetradecyl phosphonium chloride]
Log10 Reduction Facultative Anaerobes (Enterobacter aerogenes; contact time 4 hours): 2 | Log10 Reduction Anaerobes (Desulfovibrio vulgaris; contact time 4 hours): 5

CCCCCCCCCCCCCC[P+](CCCC)(CCCC)CCCC.[Cl-] [Example 10, tri n-butyl n-tetradecyl phosphonium chloride]
Log10 Reduction Facultative Anaerobes (Enterobacter aerogenes; contact time 4 hours): 8 | Log10 Reduction Anaerobes (Desulfovibrio vulgaris; contact time 4 hours): 5

ClC=CC[N+]12CN3CN(CN(C3)C1)C2.[Cl-] [Example 11, 1-(3-chloroallyl)-3,5,7-triaza-1-azoniaadamantane chloride]
Log10 Reduction Facultative Anaerobes (Enterobacter aerogenes; contact time 4 hours): 0 | Log10 Reduction Anaerobes (Desulfovibrio vulgaris; contact time 4 hours): 0

ClC=CC[N+]12CN3CN(CN(C3)C1)C2.[Cl-] [Example 12, 1-(3-chloroallyl)-3,5,7-triaza-1-azoniaadamantane chloride]
Log10 Reduction Facultative Anaerobes (Enterobacter aerogenes; contact time 4 hours): 1 | Log10 Reduction Anaerobes (Desulfovibrio vulgaris; contact time 4 hours): 0

CCCCCCCCCCCCCC[P+](CCCC)(CCCC)CCCC.[Cl-] [Example 17, tri n-butyl n-tetradecyl phosphonium chloride]
Log10 Reduction Facultative Anaerobes (Enterobacter aerogenes; contact time 24 hours): 4 | Log10 Reduction Anaerobes (Desulfovibrio vulgaris; contact time 24 hours): 5

CCCCCCCCCCCCCC[P+](CCCC)(CCCC)CCCC.[Cl-] [Example 18, tri n-butyl n-tetradecyl phosphonium chloride]
Log10 Reduction Facultative Anaerobes (Enterobacter aerogenes; contact time 24 hours): 7 | Log10 Reduction Anaerobes (Desulfovibrio vulgaris; contact time 24 hours): 5

ClC=CC[N+]12CN3CN(CN(C3)C1)C2.[Cl-] [Example 19, 1-(3-chloroallyl)-3,5,7-triaza-1-azoniaadamantane chloride]
Log10 Reduction Facultative Anaerobes (Enterobacter aerogenes; contact time 24 hours): 0 | Log10 Reduction Anaerobes (Desulfovibrio vulgaris; contact time 24 hours): 1

ClC=CC[N+]12CN3CN(CN(C3)C1)C2.[Cl-] [Example 20, 1-(3-chloroallyl)-3,5,7-triaza-1-azoniaadamantane chloride]
Log10 Reduction Facultative Anaerobes (Enterobacter aerogenes; contact time 24 hours): 2 | Log10 Reduction Anaerobes (Desulfovibrio vulgaris; contact time 24 hours): 3

CCCCCCCCCCCCCC[P+](CCCC)(CCCC)CCCC.[Cl-] [Example 25, tri n-butyl n-tetradecyl phosphonium chloride]
Log10 Reduction Facultative Anaerobes (Enterobacter aerogenes; contact time 48 hours): 6 | Log10 Reduction Anaerobes (Desulfovibrio vulgaris; contact time 48 hours): 5

ClC=CC[N+]12CN3CN(CN(C3)C1)C2.[Cl-] [Example 27, 1-(3-chloroallyl)-3,5,7-triaza-1-azoniaadamantane chloride]
Log10 Reduction Facultative Anaerobes (Enterobacter aerogenes; contact time 48 hours): 2 | Log10 Reduction Anaerobes (Desulfovibrio vulgaris; contact time 48 hours): 5

ClC=CC[N+]12CN3CN(CN(C3)C1)C2.[Cl-] [Example 28, 1-(3-chloroallyl)-3,5,7-triaza-1-azoniaadamantane chloride]
Log10 Reduction Facultative Anaerobes (Enterobacter aerogenes; contact time 48 hours): 3 | Log10 Reduction Anaerobes (Desulfovibrio vulgaris; contact time 48 hours): 5

Source: patent US20170094976A1, “TREATMENT OF WATER” (BWA WATER ADDITIVES UK LIMITED, priority 2015, published 2017)
